# Test results reported in ChEMBL document CHEMBL1132065, “Synthesis and biological activity of oxo-7H-benzo[e]perimidine-4-carboxylic acid derivatives as potent, nonpeptide corticotropin releasing factor (CRF) receptor antagonists” (Bioorg Med Chem Lett, 1999).
# How the values were obtained:
# [1] = target: T1, Corticotropin-releasing factor receptor 1 (Rattus norvegicus, UniProt P35353); experiment: Antagonistic activity against [125I]-Tyr-ovine CRF binding to Corticotropin releasing factor receptor 1
# T1 sequence (P35353 whole entry): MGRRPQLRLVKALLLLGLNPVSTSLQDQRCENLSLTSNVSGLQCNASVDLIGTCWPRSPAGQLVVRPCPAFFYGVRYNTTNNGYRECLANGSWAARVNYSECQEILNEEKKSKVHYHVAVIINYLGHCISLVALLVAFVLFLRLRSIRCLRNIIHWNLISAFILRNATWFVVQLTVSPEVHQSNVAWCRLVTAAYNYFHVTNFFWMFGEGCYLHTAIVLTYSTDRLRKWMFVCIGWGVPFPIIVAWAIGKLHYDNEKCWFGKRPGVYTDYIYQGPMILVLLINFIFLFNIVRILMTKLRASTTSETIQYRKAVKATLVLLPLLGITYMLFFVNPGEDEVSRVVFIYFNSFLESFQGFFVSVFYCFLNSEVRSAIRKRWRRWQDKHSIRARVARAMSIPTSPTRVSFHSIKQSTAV
# [2] = target: T2, Corticotropin-releasing factor receptor 2 (Mus musculus, UniProt Q60748); experiment: Antagonistic activity against [125I]-Tyr-ovine CRF binding to Corticotropin releasing factor receptor 2 beta
# [3] = Binding affinity to Glp1 receptor using [125I]Glp-1 as radioligand
# [4] = target: 5-hydroxytryptamine receptor 7 (Homo sapiens, UniProt P34969); experiment: Binding affinity against 5-hydroxytryptamine 7 receptor
# [5] = target: T3, Neuropeptide Y receptor type 1 (Homo sapiens, UniProt P25929); experiment: Binding affinity against Neuropeptide Y receptor type 1 using [125I]PYY
# T3 sequence (P25929 whole entry): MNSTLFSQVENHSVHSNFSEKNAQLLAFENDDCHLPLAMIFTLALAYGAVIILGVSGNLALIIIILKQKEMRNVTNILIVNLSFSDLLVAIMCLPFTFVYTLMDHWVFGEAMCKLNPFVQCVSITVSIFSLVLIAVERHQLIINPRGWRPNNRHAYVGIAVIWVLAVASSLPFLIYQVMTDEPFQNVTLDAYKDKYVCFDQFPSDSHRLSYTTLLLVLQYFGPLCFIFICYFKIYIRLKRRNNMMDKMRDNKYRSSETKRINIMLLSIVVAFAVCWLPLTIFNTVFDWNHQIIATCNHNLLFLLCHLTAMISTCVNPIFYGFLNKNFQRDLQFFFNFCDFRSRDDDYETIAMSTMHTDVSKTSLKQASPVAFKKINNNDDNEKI
# [6] = Binding affinity against Glucagon receptor using [125I]glucagon
# [7] = target: 5-hydroxytryptamine receptor 6 (Homo sapiens, UniProt P50406); experiment: Binding affinity against 5-hydroxytryptamine 6 receptor
# [8] = Binding affinity against Galanin receptor; design: species or system Homo sapiens
# D(2) dopamine receptor = D(2) dopamine receptor (Homo sapiens, UniProt P14416); experiment: Binding affinity against dopamine D2 receptor
# [9] = target: T2, Corticotropin-releasing factor receptor 2; experiment: Antagonistic activity against [125I]-Tyr-ovine CRF binding to Corticotropin releasing factor receptor 2 beta (30% inhibition at 100 uM)
# T2 sequence (Q60748 whole entry): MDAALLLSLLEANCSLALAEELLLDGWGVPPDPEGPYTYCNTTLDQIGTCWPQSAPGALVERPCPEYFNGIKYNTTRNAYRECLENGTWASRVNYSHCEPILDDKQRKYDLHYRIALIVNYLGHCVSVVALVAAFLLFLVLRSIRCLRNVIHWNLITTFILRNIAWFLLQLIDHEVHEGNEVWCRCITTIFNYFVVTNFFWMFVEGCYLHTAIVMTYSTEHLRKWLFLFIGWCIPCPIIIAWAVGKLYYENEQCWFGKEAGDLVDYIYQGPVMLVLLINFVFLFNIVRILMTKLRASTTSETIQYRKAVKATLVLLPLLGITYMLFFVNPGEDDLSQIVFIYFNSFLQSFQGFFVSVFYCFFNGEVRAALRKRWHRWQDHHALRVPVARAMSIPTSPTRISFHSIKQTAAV
# Sequence of 5-hydroxytryptamine receptor 6 (P50406 whole entry): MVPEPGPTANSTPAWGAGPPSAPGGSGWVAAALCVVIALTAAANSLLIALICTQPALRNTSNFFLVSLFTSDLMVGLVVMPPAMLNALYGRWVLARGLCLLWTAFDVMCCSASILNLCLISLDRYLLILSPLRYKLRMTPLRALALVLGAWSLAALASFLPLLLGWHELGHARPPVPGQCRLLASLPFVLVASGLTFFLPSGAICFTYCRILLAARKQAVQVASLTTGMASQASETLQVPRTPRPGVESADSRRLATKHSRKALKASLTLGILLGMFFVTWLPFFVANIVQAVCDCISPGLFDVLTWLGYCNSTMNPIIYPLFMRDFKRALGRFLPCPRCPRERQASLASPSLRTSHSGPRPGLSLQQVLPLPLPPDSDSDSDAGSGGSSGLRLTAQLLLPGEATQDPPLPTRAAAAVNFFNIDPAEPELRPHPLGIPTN
# Sequence of 5-hydroxytryptamine receptor 7 (P34969 whole entry): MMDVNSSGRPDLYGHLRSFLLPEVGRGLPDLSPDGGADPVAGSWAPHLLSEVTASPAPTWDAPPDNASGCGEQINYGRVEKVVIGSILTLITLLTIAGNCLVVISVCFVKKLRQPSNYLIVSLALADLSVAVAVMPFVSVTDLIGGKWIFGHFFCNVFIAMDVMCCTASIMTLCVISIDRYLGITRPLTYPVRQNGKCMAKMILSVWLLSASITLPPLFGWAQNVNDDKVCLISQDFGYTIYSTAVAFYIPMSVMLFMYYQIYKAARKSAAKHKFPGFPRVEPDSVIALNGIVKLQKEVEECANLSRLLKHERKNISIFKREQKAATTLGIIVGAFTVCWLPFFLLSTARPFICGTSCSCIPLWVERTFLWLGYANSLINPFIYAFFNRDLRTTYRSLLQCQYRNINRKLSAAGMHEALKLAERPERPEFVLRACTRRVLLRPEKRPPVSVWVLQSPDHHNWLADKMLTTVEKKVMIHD
# Sequence of D(2) dopamine receptor (P14416 whole entry): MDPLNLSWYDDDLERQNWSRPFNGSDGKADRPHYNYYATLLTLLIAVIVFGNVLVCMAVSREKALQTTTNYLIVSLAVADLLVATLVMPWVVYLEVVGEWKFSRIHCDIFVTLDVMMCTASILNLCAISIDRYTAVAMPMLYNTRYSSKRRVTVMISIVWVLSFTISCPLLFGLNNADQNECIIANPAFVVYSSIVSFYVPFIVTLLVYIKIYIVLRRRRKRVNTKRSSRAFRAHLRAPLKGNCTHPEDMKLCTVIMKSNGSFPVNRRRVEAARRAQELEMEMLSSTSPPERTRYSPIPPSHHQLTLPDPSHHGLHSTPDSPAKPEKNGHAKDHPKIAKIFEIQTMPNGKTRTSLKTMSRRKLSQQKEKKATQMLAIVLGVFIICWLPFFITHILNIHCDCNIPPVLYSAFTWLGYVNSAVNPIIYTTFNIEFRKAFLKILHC
Compound,Ki [1],Ki [2],further results
NCCNC(=O)c1c2c(c3c(O)c4ccccc4c4ncnc1c34)=NCCN2,2050 nM,650 nM,–
NCCNC(=O)c1c2c(c3c(O)c4ccccc4c4ncnc1c34)=N[C@@H]1CCCC[C@H]1N2,160 nM,45 nM,–
NCCNC(=O)c1c2c(c3c4c(ncnc14)-c1ccccc1C3=O)N[C@H]1CCCC[C@@H]1N2,200 nM,75 nM,–
NCCNC(=O)c1ccc2c3c(ncnc13)-c1ccccc1C2=O,> 10000 nM,> 10000 nM,–
N[C@H]1CCCC[C@H]1NC(=O)c1ccc2c3c(ncnc13)-c1ccccc1C2=O,> 10000 nM,> 10000 nM,–
N[C@@H]1CCCC[C@H]1NC(=O)c1ccc2c3c(ncnc13)-c1ccccc1C2=O,> 10000 nM,> 10000 nM,–
N[C@@H]1CCCC[C@H]1NC(=O)c1c2c(c3c(O)c4ccccc4c4ncnc1c34)=N[C@H]1CCCC[C@@H]1N2,180 nM,86 nM,–
NCCNC(=O)c1c2c(c3c(O)c4ccccc4c4ncnc1c34)=N[C@H]1CCCC[C@H]1N2,270 nM,830 nM,–
N[C@H]1CCCC[C@@H]1NC(=O)c1c2c(c3c4c(ncnc14)-c1ccccc1C3=O)N[C@@H]1CCCC[C@H]1N2,110 nM,20 nM,Ki [3]: > 10000 nM; Ki [4]: 1600 nM; Ki [5]: 4200 nM; Ki [6]: > 10000 nM; Ki [7]: > 10000 nM; Ki [8]: > 10000 nM; Ki (D(2) dopamine receptor): 3200 nM
CN(C)C(=O)c1ccc2c3c(ncnc13)-c1ccccc1C2=O,–,> 10000 nM,–
O=C(O)c1ccc2c3c(ncnc13)-c1ccccc1C2=O,–,–,Ki [9]: > 100000 nM
